Measured values published in US12115209B2, “ROMO1-derived antimicrobial peptides including lysine substitution and variants thereof” (KOREA UNIVERSITY RESEARCH AND BUSINESS FOUNDATION, priority 2019, dated 2024).
In brackets after ≈: the same amount, converted by molar mass. Non-standard residues stand in square brackets, D forms with d. Residues, ends and D or L forms follow the SMILES beside them. No end group written: not given here. Nle = CCCC[C@H](N)C(=O)O

What was measured:
Format in all cases: cell-based
[1] = system: Staphylococcus aureus (ATCC 29213); experiment: Minimum bactericidal concentration (MBC) assay; conditions: Tables 11-21, no unit printed
Description: (§1) First, each of Pseudomonas aeruginosa (ATCC 27853) and Staphylococcus aureus (ATCC 29213) was cultured in 3% (w/v) TSB (tryptic soy broth) liquid medium at 37° C. and 200 rpm for 4 hours, and then further cultured under the same conditions for 3 hours to a concentration of 5×10^6 CFU/ml. Strain solutions were prepared by diluting each of the further cultured strains with SP (sodium phosphate; 10 mM sodium phosphate, 1% TSB) buffer to a final concentration of 2×10^5 CFU/ml.
(§2) Then, each peptide at varying concentrations (0 μg/ml to 300 μg/ml) was dispensed into each well of a 96-well microplate, and 100 μl (1×10^5 CFU/ml) of each of the prepared strain solutions was added thereto, mixed therewith, and allowed to react with the peptide in an incubator at 37° C. for 1 hour.
(§3) In addition, 30 g/L of TS (tryptic soy) and 15 g/L of agar were dissolved in distilled water and sterilized, and then 25 ml of the solution was poured onto a 100 mm round plate and solidified at room temperature for one day or more, thereby preparing a TS agar plate. 10 μl of each reaction solution of the peptide and the strain was plated on the TS agar plate at a constant size, and incubated in an incubator at 37° C. for 18 hours, and then colony formation on the plate was checked. The minimum bactericidal concentration was defined as the minimum concentration of the peptide at which no colony was formed, and the experimental results are shown in Table 1 below.

[2] = system: Pseudomonas aeruginosa, Staphylococcus aureus, CRPA, MRSA; experiment: Increase in antibacterial activity (MBC) compared with KU-5878; conditions: mark = antibacterial activity increased compared with KU-5878
CRPA = experiment: Minimum bactericidal concentration (MBC) assay; conditions: Tables 11-21, no unit printed
[3] = system: Methicillin-resistant Staphylococcus aureus (MRSA, ATCC 33591); experiment: Minimum bactericidal concentration (MBC) assay; conditions: Tables 11-21, no unit printed
Description: as §1, with “2×10^5 CFU/ml. […]” for “2×10^5 CFU/ml.”
as §3, with “checked.” for “checked. The minimum bactericidal concentration was defined as the minimum concentration of the peptide at which no colony was formed, and the experimental results are shown in Table 1 below.”
Specifically, each type of bacteria was cultured in 3% (w/v) TSB (tryptic soy broth) liquid medium at 37° C. and 200 rpm for 4 hours, and then further cultured under the same conditions for 3 hours to a concentration of 5×10^6 CFU/ml. Strain solutions were prepared by diluting each of the further cultured strains with SP buffer to a final concentration of 2×10^5 CFU/ml.
as §2, with “Then, the KU-5878” for “Then, each”
In addition, 10 μl of each reaction solution of the peptide and the strain was plated on the TS agar plate at a constant size, and incubated in an incubator at 37° C. for 18 hours, and then colony formation on the plate was checked.

[4] = system: Pseudomonas aeruginosa (ATCC 27853); experiment: Minimum bactericidal concentration (MBC) assay; conditions: Tables 11-21, no unit printed
Description: as §1, §2, §3

Compound | MBC Staphylococcus aureus [1] [µg/mL] | Increase in activity [2] | MBC CRPA (CRPA) [µg/mL] | MBC MRSA [3] [µg/mL] | MBC Pseudomonas aeruginosa [4] [µg/mL]
CCCC[C@H](NC(=O)CNC(=O)[C@@H](NC(=O)[C@H](C)NC(=O)[C@H](CCCC)NC(=O)[C@H](Cc1ccccc1)NC(=O)[C@@H](NC(=O)CNC(=O)[C@H](Cc1ccccc1)NC(=O)[C@@H](NC(=O)CNC(=O)CNC(=O)[C@H](CO)NC(=O)[C@H](CCC(N)=O)NC(=O)[C@H](CCCC)NC(=O)[C@H](CCCC)NC(=O)[C@@H](NC(=O)[C@@H](N)CCCCN)[C@@H](C)O)[C@@H](C)O)[C@@H](C)O)[C@@H](C)CC)C(=O)NCC(=O)N[C@H](C(=O)N[C@@H](CCCNC(=N)N)C(=O)O)[C@@H](C)CC [KU-5878-4Nle] (H-KT[Nle][Nle]QSGGTFGTF[Nle]AIG[Nle]GIR-OH; N-terminus and C-terminus assumed) | 90 (≈ 41.8 µM) | antibacterial activity of the peptide was improved | 100 (≈ 46.5 µM) | 100 (≈ 46.5 µM) | 110 (≈ 51.1 µM)
KTMMQKGGTFGTFMAIGMGIR [KU-5878-S63K] | 50 |  | 50 | 50 | 60
KTMMQRGGTFGTFMAIGMGIR [KU-5878-S63R] | 15 |  | 20 | 25 | 20
KTMMQS-GTFGTF-AIGM-IR [5878-d64G, d71M, d76G] | 200 |  | 200 | 200 | 200
KTMMQSGGAFGTFMAIGMGIR [KU-5878-T66A] | > 300 |  | > 300 | > 300 | > 300
KTMMQSGGKFGTFMAIGMGIR [KU-5878-T66K] | 60 |  | 70 | 80 | 80
KTMMQSGGRFGTFMAIGMGIR [KU-5878-T66R] | 90 |  | 80 | 90 | 80
KTMMQSGGSFGTFMAIGMGIR [KU-5878-T66S] | > 300 |  | > 300 | > 300 | > 300
KTMMQSGGT-GTFMAIGMGIR [Peptide 5878-d67F] | 200 |  | 200 | 200 | 200
KTMMQSGGTAGTFMAIGMGIR [KU-5878-F67A] | > 300 |  | > 300 | > 300 | > 300
KTMMQSGGTFG-FMAIGMGIR [Peptide 5878-d69T] | 120 |  | 140 | 140 | 120
KTMMQSGGTFGAFMAIGMGIR [KU-5878-T69A] | 300 |  | 300 | 300 | 300
KTMMQSGGTFGKFMAIGMGIR [KU-5878-T69K] | 130 |  | 150 | 150 | 140
KTMMQSGGTFGT-MAIGMGIR [Peptide 5878-d70F] | 200 |  | 200 | 200 | 200
KTMMQSGGTFGTF-AIG-GIR [5878-d71M, d75M] | 250 |  | 300 | 300 | 300
KTMMQSGGTFGTF-AIGMGIR [Peptide 5878-d71M] | 250 |  | 300 | 300 | 250
KTMMQSGGTFGTFM-IGMGIR [Peptide 5878-d72A] | 150 |  | 170 | 160 | 150
KTMMQSGGTFGTFMA-GMGIR [Peptide 5878-4731] | > 300 |  | > 300 | > 300 | > 300
KTMMQSGGTFGTFMAAGMGIR [KU-5878-I73A] | > 300 |  | > 300 | > 300 | > 300
KTMMQSGGTFGTFMAIGMAIR [KU-5878-G76A] | > 300 |  | > 300 | > 300 | > 300

Compound | MBC Staphylococcus aureus [1] [µg/mL] | Increase in activity [2] | MBC CRPA (CRPA) [µg/mL] | MBC MRSA [3] [µg/mL] | MBC Pseudomonas aeruginosa [4] [µg/mL]
KTMMQSGGTFGTFMAIGMG-R [Peptide 5878-d77I] | > 300 |  | > 300 | > 300 | > 300
KTMMQSGGTFGTFMAIGMGAR [KU-5878-I77A] | > 300 |  | > 300 | > 300 | > 300
KTMMQSGGTFGTFMAIGMGGR [KU-5878-I77G] | 90 |  | 100 | 90 | 80
KTMMQSGGTFGTFMAIGMGI [KU-5877] | 300 |  | > 300 | > 300 | 300
KTMMQSGGTFGTFMAIGMGIA [KU-5878-R78A] | > 300 |  | > 300 | > 300 | > 300
KTMMQSGGTFGTFMAIGMGIK [KU-5878-R78K] | > 300 |  | > 300 | > 300 | > 300
KTMMQSGGTFGTFMAIGMGIRQ [Peptide 5878-Q] | 180 |  | 180 | 180 | 150
KTMMQSGGTFGTFMAIGMGKR [KU-5878-I77K] | > 300 |  | > 300 | > 300 | > 300
KTMMQSGGTFGTFMAIGMGTR [KU-5878-I77T] | > 300 |  | > 300 | > 300 | > 300
KTMMQSGGTFGTFMAKGMGIR [KU-5878-I73K] | > 300 |  | > 300 | > 300 | > 300
KTMMQSGGTFGTFMAWGMGIR [KU-5878-I73W] | 300 |  | 300 | > 300 | 300
KTMMQSGGTFGTFMGIGMGIR [KU-5878-A72G] | > 300 |  | > 300 | > 300 | > 300
KTMMQSGGTFGTKMAIGMGIR [KU-5878-F70K] | > 300 |  | > 300 | > 300 | > 300
KTMMQSGGTFGTWMAIGMGIR [KU-5878-F70W] | 300 |  | 300 | > 300 | 300
KTMMQSGGTWGTFMAIGMGIR [KU-5878-F67W] | 80 |  | 80 | 90 | 80
KTMMQTGGTFGTFMAIGMGIR [KU-5878-S63T] | > 300 |  | > 300 | > 300 | > 300
KTMMRSGGTFGTFMAIGMGIR [KU-5878-Q62R] | 80 |  | 80 | 90 | 80
KTMMSSGGTFGTFMAIGMGIR [KU-5878-Q62S] | > 300 |  | > 300 | > 300 | > 300
RTMMQSGGTFGTFMAIGMGIR [KU-5878-K58R] | 120 |  | 120 | 120 | 120
